Measurements published in patent US11345681B1, “Inhibitors of fibroblast growth factor receptor kinases” (Kinnate Biopharma Inc., priority 2020, dated 2022).

What follows are compounds tested against Wild type FGFR2 (Homo sapiens (Human), UniProt P21802) (assay: FGFR2 kinase assay (fluorescence-based microfluidic mobility shift assay)). Details: wild type FGFR2 0.06 nM, 100 μM ATP, 80 minutes at room temperature; class symbols.
Format: biochemical

Chain of Wild type FGFR2 (P21802 22-821): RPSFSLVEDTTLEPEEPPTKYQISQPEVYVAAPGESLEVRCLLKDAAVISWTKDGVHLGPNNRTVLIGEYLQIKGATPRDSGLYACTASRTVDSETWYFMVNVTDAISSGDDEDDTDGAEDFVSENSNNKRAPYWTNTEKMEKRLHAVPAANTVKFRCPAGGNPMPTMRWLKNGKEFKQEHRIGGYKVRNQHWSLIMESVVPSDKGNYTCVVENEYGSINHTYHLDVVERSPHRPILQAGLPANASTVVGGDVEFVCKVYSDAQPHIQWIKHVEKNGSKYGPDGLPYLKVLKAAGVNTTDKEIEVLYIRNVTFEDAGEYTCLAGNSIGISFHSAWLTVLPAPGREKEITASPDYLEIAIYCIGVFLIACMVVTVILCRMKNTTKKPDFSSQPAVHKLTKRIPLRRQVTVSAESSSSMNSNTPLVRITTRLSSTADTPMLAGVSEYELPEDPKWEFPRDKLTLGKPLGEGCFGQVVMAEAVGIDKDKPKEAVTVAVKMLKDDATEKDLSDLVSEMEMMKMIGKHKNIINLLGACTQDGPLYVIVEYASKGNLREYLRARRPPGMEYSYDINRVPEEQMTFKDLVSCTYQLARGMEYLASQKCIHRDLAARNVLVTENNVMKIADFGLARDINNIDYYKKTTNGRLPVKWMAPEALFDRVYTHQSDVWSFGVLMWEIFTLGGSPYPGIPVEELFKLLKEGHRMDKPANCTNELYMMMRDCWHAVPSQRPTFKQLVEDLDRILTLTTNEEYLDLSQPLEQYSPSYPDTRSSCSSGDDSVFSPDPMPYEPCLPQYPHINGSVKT

Row | SMILES | IC50 [µM]
1 | C=CC(=O)N1C[C@@H](n2nc(C#Cc3cc4c(cc3Cl)ncn4C(F)F)c(C(N)=O)c2NC)C[C@@H]1COC [Example 93, 3-[2-[6-Chloro-3-(difluoromethyl)-1,3-benzodiazol-5-yl]ethynyl]-1-[(3S,5R)-5-(methoxymethyl)-1-(prop-2-enoyl)pyrrolidin-3-yl]-5-(methylamino)pyrazole-4-carboxamide] | ≤ 0.1
2 | C=CC(=O)N1C[C@@H](n2nc(C#Cc3cc4nc(C)n(C(F)F)c4cc3Cl)c(C(N)=O)c2NC)C[C@@H]1COC [Example 96, 3-[2-[6-Chloro-1-(difluoromethyl)-2-methyl-1,3-benzodiazol-5-yl]ethynyl]-1-[(3S,5R)-5-(methoxymethyl)-1-(prop-2-enoyl)pyrrolidin-3-yl]-5-(methylamino)pyrazole-4-carboxamide] | ≤ 0.1
3 | C=CC(=O)N1C[C@@H](n2nc(C#Cc3cc4nc(C)[nH]c4cc3Cl)c(C(N)=O)c2NC)C[C@@H]1COC [Example 98, 3-[2-(6-Chloro-2-methyl-1R-1,3-benzodiazol-5-yl)ethynyl]-1-[(3S,5R)-5-(methoxymethyl)-1-(prop-2-enoyl)pyrrolidin-3-yl]-5-(methylamino)pyrazole-4-carboxamid] | ≤ 0.1
4 | C=CC(=O)N1C[C@@H](n2nc(C#Cc3cc4ncn(C)c4c(F)c3F)c(C(N)=O)c2NC)C[C@@H]1COC [Example 101, 3-[2-(6,7-Difluoro-1-methyl-1,3-benzodiazol-5-yl)ethynyl]-1-[(3S,5R)-5-(methoxymethyl)-1-(prop-2-enoyl)pyrrolidin-3-yl]-5-(methylamino)pyrazole-4-carboxamide] | ≤ 0.1
5 | C=CC(=O)N1C[C@@H](n2nc(C#Cc3ccc4scnc4c3)c(C(N)=O)c2NC)C[C@@H]1COC [Example 103, 3-[2-(1,3-Benzothiazol-5-yl)ethynyl]-1-[(3S,5R)-5-(methoxymethyl)-1-(prop-2-enoyl)pyrrolidin-3-yl]-5-(methylamino)pyrazole-4-carboxamide] | ≤ 0.1
6 | C=CC(=O)N1C[C@@H](n2nc(C#Cc3ccn4ncnc4c3)c(C(N)=O)c2NC)C[C@@H]1COC [Example 107, 1-[(3S,5R)-5-(Methoxymethyl)-1-(prop-2-enoyl)pyrrolidin-3-yl]-5-(methylamino)-3-(2-[[1,2,4]triazolo[1,5-c]pyridin-7-yl]ethynyl)pyrazole-4-carboxamide] | 0.1 to 1
7 | C=CC(=O)N1C[C@@H](n2nc(C#Cc3cc4ncn(C)c4c(F)c3Cl)c(C(N)=O)c2NC)C[C@@H]1COC [Example 113, 3-[2-(6-chloro-7-fluoro-1-methyl-1,3-benzodiazol-5-yl)ethynyl]-1-[(3S,5R)-5-(methoxymethyl)-1-(prop-2-enoyl)pyrrolidin-3-yl]-5-(methylamino)pyrazole-4-carboxamide] | ≤ 0.1
8 | C=CC(=O)N1C[C@@H](n2nc(C#Cc3nc4ccccc4o3)c(C(N)=O)c2NC)C[C@@H]1COC [Example 114, 3-[2-(1,3-Benzoxazol-2-yl)ethynyl]-1-[(3S,5R)-5-(methoxymethyl)-1-(prop-2-enoyl)pyrrolidin-3-yl]-5-(methylamino)pyrazole-4-carboxamide] | ≤ 0.1
9 | C=CC(=O)N1CC[C@H](n2nc(C#Cc3c(F)cc4c(ncn4CC)c3F)c(C(N)=O)c2NCC2CC2)C1 [Example 118, 5-[(Cyclopropylmethyl)amino]-3-[2-(1-ethyl-4,6-difluoro-1,3-benzodiazol-5-yl)ethynyl]-1-[(3S)-1-(prop-2-enoyl)pyrrolidin-3-yl]pyrazole-4-carboxamide] | ≤ 0.1
10 | C=CC(=O)N1CC[C@H](n2nc(C#Cc3c(F)cc4c(ncn4CC)c3F)c(C(N)=O)c2NCCCN2CCOCC2)C1 [Example 120, 3-[2-(1-ethyl-4,6-difluoro-1,3-benzodiazol-5-yl)ethynyl]-5-[[3-(morpholin-4-yl)propyl]amino]-1-[(3S)-1-(prop-2-enoyl)pyrrolidin-3-yl]pyrazole-4-carboxamide] | ≤ 0.1

The next lines start with the values.

Row | IC50 [µM] | SMILES
11 | ≤ 0.1 | C=CC(=O)N1C[C@@H](n2nc(C#Cc3cc4ncn(C(F)F)c4cc3Cl)c(C(N)=O)c2NC)C[C@@H]1COC [Example 94, 3-[2-[6-Chloro-1-(difluoromethyl)-1,3-benzodiazol-5-yl]ethynyl]-1-[(3S,5R)-5-(methoxymethyl)-1-(prop-2-enoyl)pyrrolidin-3-yl]-5-(methylamino)pyrazole-4-carboxamide]
12 | 0.1 to 1 | C=CC(=O)N1C[C@@H](n2nc(C#Cc3cc4c(cc3Cl)nc(C)n4C(F)F)c(C(N)=O)c2NC)C[C@@H]1COC [Example 95, 3-[2-[6-Chloro-3-(difluoromethyl)-2-methyl-1,3-benzodiazol-5-yl]ethynyl]-1-[(3S,5R)-5-(methoxymethyl)-1-(prop-2-enoyl)pyrrolidin-3-yl]-5-(methylamino)pyrazole-4-carboxamide]
13 | ≤ 0.1 | C=CC(=O)N1C[C@@H](n2nc(C#Cc3c(F)cc4c(nnn4C)c3F)c(C(N)=O)c2NC)C[C@@H]1COC [Example 97, 3-[2-(4,6-Difluoro-1-methyl-1,2,3-benzotriazol-5-yl)ethynyl]-1-[(3S,5R)-5-(methoxymethyl)-1-(prop-2-enoyl)pyrrolidin-3-yl]-5-(methylamino)pyrazole-4-carboxamide]
14 | ≤ 0.1 | C=CC(=O)N1C[C@@H](n2nc(C#Cc3c(Cl)cc4c(ncn4CC)c3F)c(C(N)=O)c2NC)C[C@@H]1COC [Example 99, 3-[2-(6-Chloro-1-ethyl-4-fluoro-1,3-benzodiazol-5-yl)ethynyl]-1-[(3S,5R)-5-(methoxymethyl)-1-(prop-2-enoyl)pyrrolidin-3-yl]-5-(methylamino)pyrazole-4-carboxamide]
15 | ≤ 0.1 | C=CC(=O)N1C[C@@H](n2nc(C#Cc3c(Cl)cc4c(ncn4C)c3F)c(C(N)=O)c2NC)C[C@@H]1COC [Example 100, 3-[2-(6-Chloro-4-fluoro-1-methyl-1,3-benzodiazol-5-yl)ethynyl]-1-[(3S,5R)-5-(methoxymethyl)-1-(prop-2-enoyl)pyrrolidin-3-yl]-5-(methylamino)pyrazole-4-carboxamide]
16 | ≤ 0.1 | C=CC(=O)N1C[C@@H](n2nc(C#Cc3nc4ccccc4s3)c(C(N)=O)c2NC)C[C@@H]1COC [Example 102, 3-[2-(1,3-Benzothiazol-2-yl)ethynyl]-1-[(3S,5R)-5-(methoxymethyl)-1-(prop-2-enoyl)pyrrolidin-3-yl]-5-(methylamino)pyrazole-4-carboxamide]
17 | ≤ 0.1 | C=CC(=O)N1C[C@@H](n2nc(C#Cc3ccc4ocnc4c3)c(C(N)=O)c2NC)C[C@@H]1COC [Example 108, 3-[2-(1,3-Benzoxazol-5-yl)ethynyl]-1-[(3S,5R)-5-(methoxymethyl)-1-(prop-2-enoyl)pyrrolidin-3-yl]-5-(methylamino)pyrazole-4-carboxamide]
18 | ≤ 0.1 | C=CC(=O)N1C[C@@H](n2nc(C#Cc3c(F)cc4c(ncn4CC)c3F)c(C(N)=O)c2NCC2CC2)C[C@@H]1COC [Example 109, 5-[(Cyclopropylmethyl)amino]-3-[2-(1-ethyl-4,6-difluoro-1,3-benzodiazol-5-yl)ethynyl]-1-[(3S,5R)-5-(methoxymethyl)-1-(prop-2-enoyl)pyrrolidin-3-yl]pyrazole-4-carboxamide]
19 | ≤ 0.1 | C=CC(=O)N1C[C@@H](n2nc(C#Cc3c(F)cc4c(ncn4CC)c3F)c(C(N)=O)c2NCCCN2CCOCC2)C[C@@H]1COC [Example 111, 3-[2-(1-Ethyl-4,6-difluoro-1,3-benzodiazol-5-yl)ethynyl]-1-[(3S,5R)-5-(methoxymethyl)-1-(prop-2-enoyl)pyrrolidin-3-yl]-5-[[3-(morpholin-4-yl)propyl]amino]pyrazole-4-carboxamide]
20 | ≤ 0.1 | C=CC(=O)N1CC[C@H](n2nc(C#Cc3c(F)cc4c(ncn4CC)c3F)c(C(N)=O)c2NCCN2CCOCC2)C1 [Example 112, 3-[2-(1-Ethyl-4,6-difluoro-1,3-benzodiazol-5-yl)ethynyl]-5-[[2-(morpholin-4-yl)ethyl]amino]-1-[(3S)-1-(prop-2-enoyl)pyrrolidin-3-yl]pyrazole-4-carboxamide]
21 | ≤ 0.1 | C=CC(=O)N1C[C@@H](n2nc(C#Cc3cc4ncoc4cc3F)c(C(N)=O)c2NC)C[C@@H]1COC [Example 115, 3-[2-(6-Fluoro-1,3-benzoxazol-5-yl)ethynyl]-1-[(3S,5R)-5-(methoxymethyl)-1-(prop-2-enoyl)pyrrolidin-3-yl]-5-(methylamino)pyrazole-4-carboxamide]
22 | ≤ 0.1 | C=CC(=O)N1C[C@@H](n2nc(C#Cc3c(F)cc4c(ncn4CC)c3F)c(C(N)=O)c2NCCO)C[C@@H]1COC [Example 116, 3-[2-(1-Ethyl-4,6-difluoro-1,3-benzodiazol-5-yl)ethynyl]-5-[(2-hydroxyethyl)amino]-1-[(3S,5R)-5-(methoxymethyl)-1-(prop-2-enoyl)pyrrolidin-3-yl]pyrazole-4-carboxamide]
23 | ≤ 0.1 | C=CC(=O)N1C[C@@H](n2nc(C#Cc3c(F)cc4c(ncn4CC)c3F)c(C(N)=O)c2NCCOC)C[C@@H]1COC [Example 117, 3-[2-(1-Ethyl-4,6-difluoro-1,3-benzodiazol-5-yl)ethynyl]-5-[(2-methoxyethyl)amino]-1-[(3S,5R)-5-(methoxymethyl)-1-(prop-2-enoyl)pyrrolidin-3-yl]pyrazole-4-carboxamide]
24 | ≤ 0.1 | C=CC(=O)N1CC[C@H](n2nc(C#Cc3c(F)cc4c(ncn4CC)c3F)c(C(N)=O)c2NCCOC)C1 [Example 119, 3-[2-(1-Ethyl-4,6-difluoro-1,3-benzodiazol-5-yl)ethynyl]-5-[(2-methoxyethyl)amino]-1-[(3S)-1-(prop-2-enoyl)pyrrolidin-3-yl]pyrazole-4-carboxamide]

Same assay, conditions: wild type FGFR2 0.06 nM, 100 μM ATP, 80 minutes at room temperature; given as numeric bound

Row | IC50 [µM] | SMILES
25 | > 0.5 | C=CC(=O)N1C[C@@H](n2nc(C#Cc3cn4ccccc4n3)c(C(N)=O)c2NC)C[C@@H]1COC [Example 104, 3-(2-[Imidazo[1,2-a]pyridin-2-yl]ethynyl)-1-[(3S,5R)-5-(methoxymethyl)-1-(prop-2-enoyl)pyrrolidin-3-yl]-5-(methylamino)pyrazole-4-carboxamide]
26 | > 0.5 | C=CC(=O)N1C[C@@H](n2nc(C#Cc3ccc4ncnn4c3)c(C(N)=O)c2NC)C[C@@H]1COC [Example 106, 1-[(3S,5R)-5-(Methoxymethyl)-1-(Prop-2-enoyl)pyrrolidin-3-yl]-5-(methylamino)-3-(2-[[1,2,4]triazolo[1,5-a]pyridin-6-yl]ethynyl)pyrazole-4-carboxamide]
